Data: patent US11292803B2, “Bioreducible N-oxide-based probes for imaging of hypoxia” (THE BOARD OF TRUSTEES OF THE UNIVERSITY OF ILLINOIS, priority 2018, dated 2022)

Tests used:
Format in all cases: physicochemical
[1] = Photostability under continuous PA image acquisition; conditions: 770 nm, 1 hour
Protocol: FIG. 16. PA signal (770 nm) at the indicated time points of HyP-1 (dots) and red-HyP-1 (squares) solutions (10 μM in 0.1 M potassium phosphate buffer with 50% v/v EtOH) produced upon continuous image acquisition over the course of 1 h. Reported values represent mean PA signal observed after subtracting background signal produced from tissue-mimicking phantom.
(§1) In addition to Fe(II), the response of HyP-1 to a variety of alkali, alkaline earth and transition metals was also determined. […] To further evaluate the stability of HyP-1, a 10 μM solution of the probe was exposed to ambient light and temperature for up to 5 days. Additionally, a 10 μM solution of HyP-1 supplemented with human plasma was incubated at 37° C. for 3 hours. […] As mentioned previously, a major limitation of 2-nitroimidazole-based hypoxia probes is their susceptibility to oxygen-independent reduction via two-electron processes, such as by bacterial nitroreductases. […] Finally, the photostability of both HyP-1 and red-HyP-1 was evaluated via continuous PA image acquisition at 770 nm over the course of 1 hour.

[2] = PA imaging of compound solutions in tissue-mimicking phantoms; conditions: solutions in tissue-mimicking phantom
Protocol: FIG. 3. Photophysical characterization of HyP-1 and red-HyP-1. (a) Normalized absorbance (dashed) and emission (solid) spectra of HyP-1 (left) and red-HyP-1 (right). (b) PA spectra of HyP-1 and red-HyP-1. PA images of HyP-1 and red-HyP-1 solutions (10 μM in 0.1 M potassium phosphate buffer (pH 7.4) with 50% EtOH co-solvent) in tissue-mimicking phantoms were obtained, and the mean PA signal corresponding to each compound was plotted as a function of wavelength. Results are presented as mean±SD (n=3). (c) PA signal corresponding to various concentrations of red-HyP-1. […]
The significant change in the absorbance profiles of these compounds can be attributed to disruption of the electron donating capability of the aniline in its N-oxide form. This chemical modification is akin to protonation of the aniline, which has been previously shown to result in similar shifts in the absorbance. The 90 nm separation in absorbance is essential to the probes design as it allows us to readily distinguish each species by selective excitation and subsequent detection using both PA and fluorescence imaging. […] Additionally, because HyP-1 and red-HyP-1 have spectrally resolved emission profiles, ratiometric imaging can be performed by determining the ratio of their fluorescence emission intensities. […]

[3] = pH dependence of absorbance and emission spectra; conditions: buffers pH 4.8 to 12.0
Protocol: FIG. 13. (a) Absorbance and (b) fluorescence spectra of HyP-1 (2 μM) in 20 mM BRB buffers containing 50% v/v EtOH (pH range 4.8-12.0).
FIG. 14. (a) Absorbance and (b) fluorescence spectra of red-HyP-1 (2 μM) in 20 mM BRB buffers containing 50% v/v EtOH (pH range 4.8-12.0).
as §1
0.1 M potassium phosphate buffer (pH 7.4) was prepared by combining stock solutions of KH2PO4 (1 M, 0.990 mL) and K2HPO4 (1 M, 4.010 mL) and diluting to a final volume of 50 mL. […] Fine adjustments to pH were made via addition of 0.1 M HCl or 0.1 M NaOH. pH values were determined using a Mettler-Toledo SevenCompact pH meter calibrated using pH 4.0, 7.0 and 10.0 standard buffers at 25° C.

SMILES | PA intensity during continuous acquisition (photostability) [1] | PA signal at 770 nm [2] | pH dependence of absorbance and emission spectra [3]
CC[N+]([O-])(CC)c1ccc(-c2cc(-c3ccccc3)c3n2[B-](F)(F)[N+]2=C(c4ccc(OC)cc4)C=C(c4ccccc4)C2=N3)cc1 [HyP-1, 4-(5,5-difluoro-7-(4-methoxyphenyl)-1,9-diphenyl-5H-5λ^4,6λ^4-dipyrrolo[1,2-c:2′,1′-f][1,3,5,2]triazaborinin-3-yl)-N,N-diethylaniline oxide] | remained unchanged | no signal | no significant pH dependence
CCN(CC)c1ccc(-c2cc(-c3ccccc3)c3n2[B-](F)(F)[N+]2=C(c4ccc(OC)cc4)C=C(c4ccccc4)C2=N3)cc1 [Red-HyP-1, 4-(5,5-difluoro-7-(4-methoxyphenyl)-1,9-diphenyl-5H-5λ^4,6λ^4-dipyrrolo[1,2-c:2′,1′-f][1,3,5,2]triazaborinin-3-yl)-N,N-diethylaniline] | remained unchanged | strong PA signal | no significant pH dependence
